Reference: US20260042772A1, “FURO PYRIMIDINE DERIVATES” (Merck Patent GmbH, priority 2022, published 2026)
Like-named read-outs stand apart in the source and are kept apart here.

Legend:
human PI4Kβ (HuPI4Kβ) = human PI4Kβ (HuPI4Kβ) (Homo sapiens (Human), UniProt Q9UBF8); assay: HuPI4Kβ lipid kinase inhibition, ADP-Glo Kinase Assay; type: biochemical; conditions: recombinant enzyme
Experimental: To further test the impact of compounds according to the present invention on human PI4Kβ, HuP[…]β inhibition was tested for selected compounds and contrasted with the results for inhibiting PfNF54 strains as described in the example above. The lipid kinase reaction is performed by incubating lipid substrate (PI:3PS or PIP2:3PS) with a recombinant enzyme and ATP, and the kinase activity is measured using the ADP-GloTM Kinase Assay. First, the kinase reaction is terminated, and any ATP remaining after the reaction is depleted, leaving only ADP. Then the Kinase Detection Reagent is added to convert ADP to ATP, which is used in a coupled luciferin/luciferase reaction. The luminescent output is measured and is correlated with kinase activity. The assays can be performed in 96- or 384-well plates and can be used for enzyme characterization, inhibitor screening or compound profiling. Results measuring the effect of compounds on HuP[…]β are reported in table 2 in nM (IC50) describing the concentration necessary to inhibit 50% of the enzyme's activity (HuP[…]β IC50 (nM)).

[1] = system: sensitive (NF54) strains of P. falciparum; assay: In vitro P. falciparum assay, modified [3H]hypoxanthine incorporation assay; type: cell-based; conditions: Plasmodium falciparum, NF54 strain
Description: Compounds according to the present invention were screened against sensitive (NF54) strains of P. falciparum in vitro using the modified [3H]hypoxanthine incorporation assay. (Vennerstrom, J. L.; Arbe-Barnes, S.; Brun, R.; Charman, S. A.; Chiu, F. C. K.; Chollet, J.; Dong, Y.; Dorn, A.; Hunziker, D.; Matile, H.; McIntosh, K.; Padmanilayam, M.; Tomas, J. S.; Scheurer, C.; Scorneaux, B.; Tang, Y.; Urwyler, H.; Wittlin, S. and Charman, W. N. Identification of an Antimalarial Synthetic Trioxolane Drug Development Candidate. Nature, 2004, 430, 900-904.).
Compound concentrations at which growth of P. falciparum was inhibited by 50% compared to untreated controls was measured in nM (IC50).
Compound concentrations at which growth of P. falciparum was inhibited by 50% compared to untreated controls was measured in nM (IC50) as described above (PfNF54 IC50 (nM)).

[2] = system: CQC sensitive strain (NF54) of P. falciparum; assay: In vitro antiplasmodial activity, Assay B (as described by Vennerstrom et al. 2004); type: cell-based; conditions: Plasmodium falciparum; NF54, Vennerstrom et al. method
Experimental: Compounds were screened against CQC sensitive strain (NF54) of P. falciparum in vitro as described by Vennerstrom et al. (2004). A full dose-response were performed starting at a concentration of 3000 nM, which is then serially diluted 2-fold in complete medium to give 10 concentrations; with the lowest concentration being approximately 6 nM. The same dilution techniques were used for all samples. References were tested at a starting concentration of 1000 ng/mL. The highest concentration of solvent to which the parasites were exposed has no measurable effect on the parasite viability (data not shown).

[3] = system: P. vivax liver-stage hypnozoites; assay: In vitro P. vivax liver-stage assay in primary human hepatocytes, radical cure mode: hypnozoites; type: cell-based; conditions: Plasmodium vivax, Hepatocyte, infected primary human hepatocytes, read-out: Pv Hypnozoite IC50
Experimental: (§1) Compound efficacy against P. vivax liver-stage schizonts and hypnozoites is evaluated in infected primary human hepatocytes (PHHs). Compound screening is performed in 384-well plates, in a 12-point dose response, from 50 μM. All compounds are tested in radical cure mode (RCM). PHHs are seeded onto 384-well plates two days prior to P. vivax sporozoite infection. In RCM, compounds are added to the culture for three days, from day 5 post infection, in duplicate wells. Nigericin and a PI4K inhibitor (KDU691) are used as positive controls in each assay, while solvent (DMSO) without added compound serves as a negative control. Daily medium changes are performed, and the culture is fixed on day twelve post infection to ensure complete parasite clearance. Fixed cells are permeabilized and stained with an anti-UIS4 primary antibody and a fluorescent secondary antibody. Liver-stage schizonts and hypnozoites are then quantified by High Content Imaging. Roth, A., et al. A comprehensive model for assessment of liver stage therapies targeting Plasmodium vivax and Plasmodium falciparum. Nat. Commun. 2018, 9(1), 1837. doi.org/10.1038/s41467-018-04221-9.

[4] = system: chloroquine sensitive (CQS) strain (NF54) of P. falciparum; assay: In vitro antiplasmodial activity, Assay A (parasite lactate dehydrogenase assay); type: cell-based; conditions: Plasmodium falciparum
Experimental: Test samples were screened for in vitro antiplasmodial activity against a chloroquine sensitive (CQS) strain (NF54) of the malaria parasite P. falciparum. Continuous in vitro cultures of asexual erythrocyte stages of P. falciparum were maintained using a modified version of the method of Trager and Jensen (1976).1 Quantitative assessment of antiplasmodial activity in vitro was determined via the parasite lactate dehydrogenase assay using a modified method described by Makler (1993). The test samples were tested in triplicate on two separate occasions. Further dilutions were prepared in complete medium on the day of the experiment. Samples were tested as a suspension if not completely dissolved. Chloroquine and artesunate were used as the reference drugs. A full dose-response were performed starting at a concentration of 3000 nM, which is then serially diluted 2-fold in complete medium to give 10 concentrations; with the lowest concentration being approximately 6 nM. The same dilution techniques were used for all samples. References were tested at a starting concentration of 1000 ng/mL. The highest concentration of solvent to which the parasites were exposed has no measurable effect on the parasite viability (data not shown).

[5] = system: P. vivax liver-stage schizonts; assay: In vitro P. vivax liver-stage assay in primary human hepatocytes, radical cure mode: schizonts; type: cell-based; conditions: Plasmodium vivax, Hepatocyte, infected primary human hepatocytes, read-out: Pv Schizont IC50
Experimental: as §1

[6] = growth inhibition, Table 2, read-out: PfNF54 IC50
[7] = [3H]hypoxanthine incorporation, read-out: In vitro P. falciparum growth inhibition IC50

Sequence of human PI4Kβ (HuPI4Kβ) (Q9UBF8 whole entry): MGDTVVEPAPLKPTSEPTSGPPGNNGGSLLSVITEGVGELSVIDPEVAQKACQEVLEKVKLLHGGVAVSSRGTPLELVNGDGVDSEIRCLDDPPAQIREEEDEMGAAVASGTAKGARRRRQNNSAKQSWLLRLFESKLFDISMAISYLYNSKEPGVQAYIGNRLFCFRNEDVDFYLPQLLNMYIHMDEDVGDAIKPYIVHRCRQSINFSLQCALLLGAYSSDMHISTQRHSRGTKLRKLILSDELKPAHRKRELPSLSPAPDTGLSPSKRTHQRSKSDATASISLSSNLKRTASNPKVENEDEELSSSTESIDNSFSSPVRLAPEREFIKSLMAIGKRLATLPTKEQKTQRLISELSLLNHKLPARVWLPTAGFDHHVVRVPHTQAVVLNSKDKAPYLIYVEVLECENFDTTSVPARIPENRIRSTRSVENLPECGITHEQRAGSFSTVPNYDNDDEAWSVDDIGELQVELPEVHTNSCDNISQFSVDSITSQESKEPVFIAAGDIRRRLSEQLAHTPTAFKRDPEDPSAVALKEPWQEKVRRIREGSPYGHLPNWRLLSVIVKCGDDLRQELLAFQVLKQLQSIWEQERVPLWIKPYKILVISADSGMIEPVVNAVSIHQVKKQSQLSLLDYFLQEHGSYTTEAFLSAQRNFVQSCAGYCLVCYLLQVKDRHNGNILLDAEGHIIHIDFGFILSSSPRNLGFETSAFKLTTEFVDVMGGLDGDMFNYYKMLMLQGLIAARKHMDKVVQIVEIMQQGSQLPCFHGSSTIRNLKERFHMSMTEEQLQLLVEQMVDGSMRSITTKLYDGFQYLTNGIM

IC50 (human PI4Kβ (HuPI4Kβ)) | IC50 [2] | IC50 [4] | Structure (SMILES) | IC50 [1, 6] | IC50 [1, 7] | IC50 [3] | IC50 [5]
> 0.5 µM | – | – | CC(C)(O)c1cc(-c2ncnc3cc(-c4ccc(C(=O)N5CCOCC5)cc4)oc23)ccn1 [Compound C74, (4-{4-[2-(1-Hydroxy-1-methyl-ethyl)-pyridin-4-yl]-furo[3,2-d]pyrimidin-6-yl}-phenyl)-morpholin-4-yl-methanone] | 0.01 to 0.05 µM | – | – | –
> 0.5 µM | – | – | C[C@@H]1COCCN1C(=O)c1ccc(-c2cc3ncnc(-c4ccnc(C(C)(C)O)c4)c3o2)cc1 [Compound C75, (4-{4-[2-(1-Hydroxy-1-methyl-ethyl)-pyridin-4-yl]-furo[3,2-d]pyrimidin-6-yl}-phenyl)-((R)-3-methyl-morpholin-4-yl)-methanone] | < 0.01 µM | – | – | –
> 0.5 µM | – | – | C[C@@H]1CN(C(=O)c2ccc(-c3cc4ncnc(-c5ccnc(C(C)(C)O)c5)c4o3)cc2)C[C@H](C)O1 [Compound C76, 2-[4-(6-{4-[(2R,6S)-2,6-dimethylmorpholine-4-carbonyl]phenyl}furo[3,2-d]pyrimidin-4-yl)pyridin-2-yl]propan-2-ol] | < 0.01 µM | – | – | –
> 0.5 µM | – | – | CN1CCN(C(=O)c2ccc(-c3cc4ncnc(-c5ccnc(C(C)(C)O)c5)c4o3)cc2)CC1 [Compound C77, 2-(4-{6-[4-(4-methylpiperazine-1-carbonyl)phenyl]furo[3,2-d]pyrimidin-4-yl}pyridin-2-yl)propan-2-ol] | 0.01 to 0.05 µM | – | – | –
0.1 to 0.5 µM | < 0.015 µM | < 0.015 µM | CC(C)(O)c1cccc(-c2ncnc3cc(-c4ccc(C(=O)N5CCOCC5)cc4)oc23)c1F [Compound D183, (4-(4-(2-fluoro-3-(2-hydroxypropan-2-yl)phenyl)furo[3,2-d]pyrimidin-6-yl)phenyl)(morpholino) methanone] | < 0.01 µM | < 0.01 µM | < 0.015 µM | < 0.015 µM
– | < 0.015 µM | – | CN1CCN(C(=O)c2ccc(-c3cc4ncnc(-c5cccc(C(C)(C)O)c5F)c4o3)cc2)CC1 [Compound D204, (4-(4-(2-fluoro-3-(2-hydroxypropan-2-yl)phenyl)furo[3,2-d]pyrimidin-6-yl)phenyl)(4-methylpiperazin-1-yl)methanone] | – | < 0.01 µM | – | –

More lines, now with the values behind:

Structure (SMILES) | IC50 (human PI4Kβ (HuPI4Kβ)) | IC50 [2] | IC50 [4] | IC50 [1, 6] | IC50 [1, 7] | IC50 [3] | IC50 [5]
CC(C)(O)c1cccc(-c2ncnc3cc(-c4ccc(S(C)(=O)=O)cc4)oc23)c1F [Compound D149, 2-(2-fluoro-3-(6-(4-(methylsulfonyl)phenyl)furo [3,2-d]pyrimidin-4-yl)phenyl)propan-2-ol] | 0.1 to 0.5 µM | < 0.015 µM | < 0.015 µM | < 0.01 µM | < 0.01 µM | < 0.015 µM | < 0.015 µM
CC(C)(O)c1cc(-c2ncnc3cc(-c4ccc(S(C)(=O)=O)cc4)oc23)cc(F)n1 [Compound D150, 2-(6-fluoro-4-(6-(4-(methylsulfonyl)phenyl)furo [3,2-d]pyrimidin-4-yl)pyridin-2-yl)propan-2-ol] | – | 0.015 to 0.05 µM | > 0.05 µM | – | 0.01 to 0.05 µM | – | –
CC(C)(O)c1cccc(-c2ncnc3cc(-c4ccc(C(=O)N5C[C@@H]6C[C@H]5CO6)cc4)oc23)c1F [Compound D197, ((1S,4S)-2-oxa-5-azabicyclo[2.2.1]heptan-5-yl)(4-(4-(2-fluoro-3-(2-hydroxypropan-2-yl)phenyl)furo[3,2-d]pyrimidin-6-yl)phenyl)methanone] | 0.1 to 0.5 µM | < 0.015 µM | < 0.015 µM | < 0.01 µM | < 0.01 µM | – | –
CC(C)(O)c1cccc(-c2ncnc3cc(-c4ccc(C(=O)O)cc4)oc23)c1F [Compound D201, 4-(4-(2-fluoro-3-(2-hydroxypropan-2-yl)phenyl)furo[3,2-d]pyrimidin-6-yl)benzoic acid] | – | 0.015 to 0.05 µM | 0.015 to 0.05 µM | – | – | 0.015 to 0.05 µM | < 0.015 µM
CC(C)(O)c1cccc(-c2ncnc3cc(-c4ccc(S(C)(=N)=O)cc4)oc23)c1F (centres unmarked) [Compound D203, (4-(4-(2-fluoro-3-(2-hydroxypropan-2-yl)phenyl)furo[3,2-d]pyrimidin-6-yl)phenyl)(imino)(methyl)-λ6-sulfanone] | – | < 0.015 µM | < 0.015 µM | – | < 0.01 µM | 0.015 to 0.05 µM | < 0.015 µM
CC(C)(O)c1cccc(-c2ncnc3cc(-c4ccc([S@@](C)(=N)=O)cc4)oc23)c1F [Compound D209, (S)-(4-(4-(2-fluoro-3-(2-hydroxypropan-2-yl)phenyl)furo[3,2-d]pyrimidin-6-yl)phenyl)(imino)(methyl)-λ^6-sulfanone] | – | – | < 0.015 µM | – | < 0.01 µM | – | –
CC(C)(O)c1cccc(-c2ncnc3cc(-c4ccc([S@](C)(=N)=O)cc4)oc23)c1F [Compound D210, (R)-(4-(4-(2-fluoro-3-(2-hydroxypropan-2-yl)phenyl)furo[3,2-d]pyrimidin-6-yl)phenyl)(imino)(methyl)-λ^6-sulfanone] | – | – | < 0.015 µM | – | < 0.01 µM | – | –
CC(C)(O)c1cccc(-c2ncnc3cc(-c4ccc(S5(=O)=NCCCC5)cc4)oc23)c1F (centres unmarked) [Compound D211, 1-(4-(4-(2-fluoro-3-(2-hydroxypropan-2-yl)phenyl)furo[3,2-d]pyrimidin-6-yl)phenyl)-3,4,5,6-tetrahydro-1,2-thiazine 1-oxide] | – | – | – | – | < 0.01 µM | – | –
CC(C)(O)c1cccc(-c2ncnc3cc(-c4ccc(S5(=O)=NCCC5)cc4)oc23)c1F (centres unmarked) [Compound D212, 1-(4-(4-(2-fluoro-3-(2-hydroxypropan-2-yl)phenyl)furo[3,2-d]pyrimidin-6-yl)phenyl)-4,5-dihydro-3H-isothiazole 1-oxide] | – | – | < 0.015 µM | – | < 0.01 µM | – | –
CC(C)(O)c1cc(-c2ncnc3cc(-c4ccc(S(C)(=O)=O)cc4)oc23)ccn1 [Compound D213, 2-(4-(6-(4-(methylsulfonyl)phenyl)furo [3,2-d]pyrimidin-4-yl)pyridin-2-yl)propan-2-ol] | – | – | – | – | 0.01 to 0.05 µM | > 0.05 µM | < 0.015 µM
CC(C)(O)c1nccc(-c2ncnc3cc(-c4ccc(S(C)(=O)=O)cc4)oc23)c1F [Compound P31, 2-(3-fluoro-4-(6-(4-(methylsulfonyl)phenyl)furo [3,2-d]pyrimidin-4-yl)pyridin-2-yl)propan-2-ol] | – | < 0.015 µM | < 0.015 µM | – | – | – | –
